The values below come from US20230257351A1, “SUBSTITUTED N-[…] HAVING P2X4 RECEPTOR ANTAGONISTIC ACTIVITY” (Bayer Aktiengesellschaft, priority 2020, published 2023).

The experiment has as its target T1, human P2X4 (Homo sapiens, UniProt Q99571).
T1 construct: expressed in transfected cells
T1 sequence (Q99571 1-388): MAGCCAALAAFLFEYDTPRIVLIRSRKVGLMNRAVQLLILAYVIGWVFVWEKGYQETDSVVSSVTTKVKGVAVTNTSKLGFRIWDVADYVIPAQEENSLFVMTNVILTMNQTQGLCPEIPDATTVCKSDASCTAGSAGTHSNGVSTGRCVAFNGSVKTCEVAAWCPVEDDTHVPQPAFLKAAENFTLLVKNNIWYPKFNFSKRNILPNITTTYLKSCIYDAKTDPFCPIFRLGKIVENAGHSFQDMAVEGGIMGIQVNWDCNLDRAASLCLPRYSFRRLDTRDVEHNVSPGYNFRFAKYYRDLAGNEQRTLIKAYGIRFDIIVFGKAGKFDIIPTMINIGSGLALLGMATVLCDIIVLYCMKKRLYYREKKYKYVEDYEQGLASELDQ
Nature of the experiment: Human P2X4 HEK Cell FLIPR Assay. In kind it is cell-based. As to conditions: HEK293 stably expressing human P2X4, agonist Bz-ATP 3 μM (EC80); for IC50: read-out: Human P2X4 HEK Cells (FLIPR Assay) avg IC50. As to the method: Compounds were tested on a HEK293 cell line stably expressing human P2X4. Cells were cultured on poly-D-lysine-coated 384-well plates at a density of 15,000 cells/well and incubated overnight at 37° C., 5% CO2. P2X4 function was assessed by measuring intracellular calcium fluxes caused by Benzoylbenzoyl-ATP (Bz-ATP) using the calcium-chelating dye Fluo8-AM (Molecular Devices) with the Fluorescent Imaging Plate Reader Tetra (FLIPR^Tetra; Molecular Devices CA). On the day of the assay, the medium was removed and the cells were incubated for 30 min at 37° C. and 5% CO2 in 30 μl of dye buffer (Hank's balanced salt solution, 10 mM HEPES, 1.8 mM CaCl2, 1 mM MgCl2, 2 mM probenecid, 5 mM D-glucose monohydrate, 5 μM Fluo8-AM, pH=7.4). Compounds diluted in probenecid buffer (Hank's balanced salt solution, 10 mM HEPES, 1.8 mM CaCl2, 1 mM MgCl2, 2 mM probenecid, 5 mM D-glucose monohydrate, pH=7.4) at ten concentrations ranging from 25 μM to 1 nM (final concentration) were dispensed and incubated for 30 min at room temperature. […] The final assay volume was 50 μl and final DMSO concentration was 0.5%.
The fluorescence intensity reflecting intracellular calcium changes was recorded before and after Bz-ATP addition, at an excitation and emission wavelengths of 470-495 nm and 515-575 nm respectively.
The compounds were tested in triplicates and fluorescence intensity raw data normalized to the agonist control and fitted to the four-parameter logistic equation:
Y=Bottom+(Top−Bottom)/(1+10^((Log IC50−X)*HillSlope))
Assay plate acceptance was based on the signal window (S/B)[…] and the reference compound pIC50 within ±3σ the mean of historic pIC50 of the compound. Failure to meet two of the three criteria determined exclusion of the plate's results.

Consider `CC(=O)N(c1cc(NC(=O)Cc2cccc(F)c2Cl)ccn1)c1ccccc1F` [Example 117, N-{4-[2-(2-chloro-3-fluorophenyl)acetamido]pyridin-2-yl}-N-(2-fluorophenyl)acetamide], for which the “Human P2X4 HEK Cells (FLIPR Assay) avg Efficacy” value (“Human P2X4 HEK Cells” for short) was determined as 95% and the IC50 was 789 nM.

Take `CC(=O)N(c1cc(NC(=O)Cc2c(Cl)cccc2Cl)ccn1)c1ccccc1F` [Example 118, N-{4-[2-(2,6-dichlorophenyl)acetamido]pyridin-2-yl}-N-(2-fluorophenyl)acetamide]: the “Human P2X4 HEK Cells” value is reported as 94% and the IC50 is 545 nM.

On to `CC(=O)N(c1cc(NC(=O)Cc2cccc(F)c2Cl)ccn1)c1ccc(C(F)(F)F)cc1F` [Example 119, N-{4-[2-(2-chloro-3-fluorophenyl)acetamido]pyridin-2-yl}-N-[2-fluoro-4-(trifluoromethyl)phenyl]acetamide], for which the “Human P2X4 HEK Cells” value was found to be 101% and the IC50 is 941 nM.

On to `CC(=O)N(c1cc(NC(=O)Cc2c(Cl)cccc2Cl)ccn1)c1ccc(C(F)(F)F)cc1F` [Example 120, N-{4-[2-(2,6-dichlorophenyl)acetamido]pyridin-2-yl}-N-[2-fluoro-4-(trifluoromethyl)phenyl]acetamide], for which the “Human P2X4 HEK Cells” value is listed as 102% and the IC50 was found to be 871 nM.

On to `CC(=O)N(c1cc(NC(=O)Cc2cccc(C(F)(F)F)c2Cl)ccn1)c1cccc(F)c1F` [Example 121, N-(4-{2-[2-chloro-3-(trifluoromethyl)phenyl]acetamido}pyridin-2-yl)-N-(2,3-difluorophenyl)acetamide], for which the “Human P2X4 HEK Cells” value turned out to be 97% and the IC50 stood at 843 nM.

Turning to `CC(=O)N(c1cc(NC(=O)Cc2ccccc2Cl)ccn1)c1cccc(F)c1F` [Example 122, N-{4-[2-(2-chlorophenyl)acetamido]pyridin-2-yl}-N-(2,3-difluorophenyl)acetamide], the “Human P2X4 HEK Cells” value was found to be 95% and the IC50 turned out to be 357 nM.

For the compound `CC(=O)N(c1cc(NC(=O)Cc2cccc(F)c2Cl)ccn1)c1cccc(F)c1F` [Example 124, N-{4-[2-(2-chloro-3-fluorophenyl)acetamido]pyridin-2-yl}-N-(2,3-difluorophenyl)acetamide], the “Human P2X4 HEK Cells” value was determined as 94% and the IC50 was 289 nM.

`CC(=O)N(c1cc(NC(=O)Cc2c(Cl)cccc2Cl)ccn1)c1cccc(F)c1F` [Example 125, N-{4-[2-(2,6-dichlorophenyl)acetamido]pyridin-2-yl}-N-(2,3-difluorophenyl)acetamide]: the “Human P2X4 HEK Cells” value was 95% and the IC50 is 577 nM.

`CC(=O)N(c1cccc(Cl)c1)c1cc(NC(=O)Cc2c(Cl)cccc2Cl)ccn1` [Example 134, N-(3-chlorophenyl)-N-{4-[2-(2,6-dichlorophenyl)acetamido]pyridin-2-yl}acetamide]: the “Human P2X4 HEK Cells” value is recorded as 99% and the IC50 came to 504 nM.

Regarding `CC(=O)N(c1cc(F)cc(Cl)c1)c1cc(NC(=O)Cc2ccccc2Cl)ccn1` [Example 136, N-(3-chloro-5-fluorophenyl)-N-{4-[2-(2-chlorophenyl)acetamido]pyridin-2-yl}acetamide], the “Human P2X4 HEK Cells” value is 94% and the concentration for half-maximal inhibition (IC50) stood at 310 nM.

With `CC(=O)N(c1cc(F)cc(Cl)c1)c1cc(NC(=O)Cc2ccc(F)cc2Cl)ccn1` [Example 137, N-(3-chloro-5-fluorophenyl)-N-{4-[2-(2-chloro-4-fluorophenyl)acetamido]pyridin-2-yl)acetamide], the “Human P2X4 HEK Cells” value is reported as 104% and the IC50 came out at 290 nM.

As for `CC(=O)N(c1cc(F)cc(Cl)c1)c1cc(NC(=O)Cc2cccc(F)c2Cl)ccn1` [Example 138, N-(3-chloro-5-fluorophenyl)-N-{4-[2-(2-chloro-3-fluorophenyl)acetamido]pyridin-2-yl}acetamide], the “Human P2X4 HEK Cells” value was found to be 96% and the IC50 was found to be 316 nM.

`CC(=O)N(c1cc(F)cc(Cl)c1)c1cc(NC(=O)Cc2c(Cl)cccc2Cl)ccn1` [Example 139, N-(3-chloro-5-fluorophenyl)-N-{4-[2-(2,6-dichlorophenyl)acetamido]pyridin-2-yl}acetamide]: the “Human P2X4 HEK Cells” value is listed as 100% and the IC50 is 356 nM.

Regarding `CC(=O)N(c1cc(F)cc(Cl)c1)c1cc(NC(=O)Cc2c(F)cccc2Cl)ccn1` [Example 140, N-(3-chloro-5-fluorophenyl)-N-{4-[2-(2-chloro-6-fluorophenyl)acetamido]pyridin-2-yl)acetamide], the “Human P2X4 HEK Cells” value was 105% and the IC50 stood at 271 nM.

Regarding `CC(=O)N(c1cc(F)cc(C#N)c1)c1cc(NC(=O)Cc2ccccc2Cl)ccn1` [Example 145, N-{4-[2-(2-Chlorphenyl)acetamido]pyridin-2-yl}-N-(3-cyan-5-fluorphenyl)acetamide], the “Human P2X4 HEK Cells” value was found to be 98% and the IC50 worked out at 234 nM.

As to `CC(=O)N(c1cc(F)cc(C#N)c1)c1cc(NC(=O)Cc2c(Cl)cccc2Cl)ccn1` [Example 146, N-(3-Cyan-5-fluorphenyl)-N-{4-[2-(2,6-dichlorphenyl)acetamido]pyridin-2-yl}acetamide], the “Human P2X4 HEK Cells” value came out at 103% and the IC50 was 337 nM.

As for `CC(=O)N(c1cc(F)cc(C#N)c1)c1cc(NC(=O)Cc2cccc(F)c2Cl)ccn1` [Example 147, N-{4-[2-(2-Chlor-3-fluorphenyl)acetamido]pyridin-2-yl}-N-(3-cyan-5-fluorphenyl)acetamide], the “Human P2X4 HEK Cells” value came out at 97% and the IC50 was found to be 384 nM.

Consider `CC(=O)N(c1cc(F)cc(C#N)c1)c1cc(NC(=O)Cc2c(F)cccc2Cl)ccn1` [Example 148, N-{4-[2-(2-Chlor-6-fluorphenyl)acetamido]pyridin-2-yl}-N-(3-cyan-5-fluorphenyl)acetamide], for which the “Human P2X4 HEK Cells” value was 96% and the IC50 was 436 nM.

For the compound `CC(=O)N(c1cc(F)cc(C#N)c1)c1cc(NC(=O)Cc2ccc(F)cc2Cl)ccn1` [Example 149, N-{4-[2-(2-Chlor-4-fluorphenyl)acetamido]pyridin-2-yl}-N-(3-cyan-5-fluorphenyl)acetamide], the “Human P2X4 HEK Cells” value is recorded as 100% and the IC50 came to 450 nM.

In the case of `CC(=O)N(c1cc(NC(=O)Cc2ccccc2Cl)ccn1)c1ccc(F)cc1Cl` [Example 150, N-(2-Chlor-4-fluorphenyl)-N-{4-[2-(2-chlorphenyl)acetamido]pyridin-2-yl}acetamide], the “Human P2X4 HEK Cells” value was 102% and the IC50 stood at 297 nM.

For the compound `CC(=O)N(c1cc(NC(=O)Cc2ccc(F)cc2Cl)ccn1)c1ccc(F)cc1Cl` [Example 151, N-(2-Chlor-4-fluorphenyl)-N-{4-[2-(2-chlor-4-fluorphenyl)acetamido]pyridin-2-yl}acetamide], the “Human P2X4 HEK Cells” value was 104% and the IC50 was determined as 355 nM.

In the case of `CC(=O)N(c1cc(NC(=O)Cc2c(Cl)cccc2Cl)ccn1)c1ccc(F)cc1Cl` [Example 152, N-(2-Chlor-4-fluorphenyl)-N-{4-[2-(2,6-dichlorphenyl)acetamido]pyridin-2-yl}acetamide], the “Human P2X4 HEK Cells” value is listed as 104% and the IC50 was found to be 441 nM.

Consider `CC(=O)N(c1cc(NC(=O)Cc2c(F)cccc2Cl)ccn1)c1ccc(F)cc1Cl` [Example 153, N-(2-Chlor-4-fluorphenyl)-N-{4-[2-(2-chlor-6-fluorphenyl)acetamido]pyridin-2-yl}acetamide], for which the “Human P2X4 HEK Cells” value came out at 102% and the IC50 was 476 nM.

On to `CC(=O)N(c1cc(NC(=O)Cc2cccc(F)c2Cl)ccn1)c1ccc(F)cc1Cl` [Example 154, N-(2-Chlor-4-fluorphenyl)-N-{4-[2-(2-chlor-3-fluorphenyl)acetamido]pyridin-2-yl}acetamide], for which the “Human P2X4 HEK Cells” value was found to be 101% and the IC50 came out at 511 nM.
